We go through 24 molecules from patent US12215173B2, “Kappa opioid receptor peptide amide ligands” (priority 2019, dated 2025).

Each structure is given as a SMILES string. Like-named read-outs stand apart in the source and are kept apart here. Square brackets hold non-standard residues; d marks the D form. Peptide text beside a SMILES is read from it. * marks the point of attachment. ξ: configuration not given here. Piperidin1yl(4-NH2,4-CO2Me) = COC(=O)C1(N)CCN(*)CC1; Pyrrolidinyl(3-NH2,3-CO2Me) = COC(=O)C1(N)CCN(*)C1; Pyrrolidino(3-NH2-3-COOH) = NC1(C(=O)O)CCN(*)C1; dAla(cPr) = N[C@H](CC1CC1)C(=O)O; dTic = O=C(O)[C@H]1Cc2ccccc2CN1; Aic = NC1(C(=O)O)Cc2ccccc2C1; ξL = CC(C)CC(N)C(=O)O

Test [1] addresses recombinant human kappa (KOR) opioid receptor (Homo sapiens (Human), UniProt P41145). The experiment in a line: biochemical. The format is binding. Particulars: HEK293 cell membranes, 0.5 nM [3H]diprenorphine.
Test [2] deals with recombinant human mu (MOR) opioid receptor (Homo sapiens (Human), UniProt P35372). The experiment in a line: Opioid receptor radioligand binding assay, MOR.
Test [3] has as its target recombinant human delta (DOR) opioid receptor (Homo sapiens (Human), UniProt P41143). The experiment in a line: Opioid receptor radioligand binding assay, DOR.
Test [4] deals with Opioid Kappa Receptor (recombinant human, HEK293 cells) (Homo sapiens (Human), UniProt P41145). The experiment in a line: cell-based. Particulars: read-out: EC50.
Where [5] appears, read: HEK293 cell membranes, 0.5 nM [3H]DAMGO, read-out: MOR, IC50.
Where [6] appears, read: HEK293 cell membranes, 0.5 nM [3H]DADLE, read-out: DOR, IC50.

Sequence of recombinant human delta (DOR) opioid receptor (P41143 whole entry, looked up): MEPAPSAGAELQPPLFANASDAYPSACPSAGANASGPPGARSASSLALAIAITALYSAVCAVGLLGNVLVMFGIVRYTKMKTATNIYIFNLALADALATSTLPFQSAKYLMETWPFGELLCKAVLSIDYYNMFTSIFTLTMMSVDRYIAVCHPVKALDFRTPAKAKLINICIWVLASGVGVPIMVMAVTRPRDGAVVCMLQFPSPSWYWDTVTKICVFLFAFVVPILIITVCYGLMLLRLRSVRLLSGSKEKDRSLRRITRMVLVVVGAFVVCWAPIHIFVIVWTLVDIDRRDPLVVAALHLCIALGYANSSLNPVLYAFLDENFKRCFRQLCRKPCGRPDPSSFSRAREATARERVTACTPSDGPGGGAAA

As usually defined, the IC50 is the concentration that gives 50% inhibition. As a reminder, the EC50 is the midpoint of the concentration-response curve. For the molecule `CCOC(=O)C(N)C(=O)NC1CCN(C(=O)[C@@H](CCCCN)NC(=O)[C@@H](CC(C)C)NC(=O)[C@@H](Cc2ccccc2)NC(=O)[C@H](N)Cc2ccccc2)CC1` (stereo partly drawn) [Compound 13-39], the 50% inhibitory concentration (IC50) in test [1] was 0.23 nM; in test [2] (setting [5]), over 10000 nM; in test [3] (setting [6]), over 10000 nM. Moreover, in test [4], the EC50 was 14.7 nM.
`COC(=O)C1(N)CCN(C(=O)[C@@H](CCCCN)NC(=O)[C@@H](CC(C)C)NC(=O)[C@@H](Cc2ccccc2)NC(=O)[C@H](N)Cc2ccc(F)cc2)C1` (stereo partly drawn) [Compound 181]: in test [4], the 50% effective concentration (EC50) was determined as 8.7 nM.
In the case of `CCNC(=O)C(=O)N1CCN(C(=O)[C@@H](CCCCN)NC(=O)[C@@H](CC(C)C)NC(=O)[C@@H](Cc2ccccc2)NC(=O)[C@H](N)Cc2ccccc2)CC1` [Compound 13-43], the IC50 in test [1] was 0.33 nM; in test [2] (setting [5]), over 10000 nM; in test [3] (setting [6]) it was over 10000 nM. Moreover, the EC50 in test [4] came out at 8.7 nM.
Turning to `CC(C)C[C@@H](NC(=O)[C@@H](Cc1ccccc1)NC(=O)[C@H](N)Cc1ccccc1)C(=O)N[C@H](CCCCN)C(=O)N1CCN(C(=O)N(C)C)CC1` [Compound 13-59], the half-inhibitory concentration (IC50) in test [1] is 0.36 nM; in test [2] (setting [5]) it was over 10000 nM; in test [3] (setting [6]) it was over 10000 nM. Further, in test [4], the EC50 was 14.3 nM.
With `COCCOCCOCCNC(=O)[C@@H](CCCCN)NC(=O)[C@@H](CC(C)C)NC(=O)[C@@H](Cc1ccccc1)NC(=O)[C@H](N)Cc1ccccc1` [Compound 13-5], the values for the IC50 in test [1], in test [2] (setting [5]) and in test [3] (setting [6]) were 5.92 nM, over 10000 nM and over 10000 nM, respectively. Further, in test [4], the concentration for a half-maximal effect (EC50) was 15.8 nM.
For the molecule `CCOC(=O)C1(N)CCN(C(=O)[C@@H](CCCCN)NC(=O)[C@@H](CC(C)C)NC(=O)[C@@H](Cc2ccccc2)NC(=O)[C@H](N)Cc2ccccc2)C1` (stereo partly drawn) [Compound 35], the figures for the IC50 in test [1], in test [2] and in test [3] were 0.19 nM, 8180 nM and over 10000 nM, respectively. For the same molecule, in test [4], the EC50 worked out at 11.7 nM.
As to `CC(C)C[C@@H](NC(=O)[C@@H](Cc1ccccc1)NC(=O)[C@H](N)Cc1ccccc1)C(=O)N[C@H](CCCCN)C(=O)NCCOCCOCCO` [Compound 13-52], the IC50 in test [1] was 1.02 nM; in test [2] (setting [5]) it was over 10000 nM; in test [3] (setting [6]) it was over 10000 nM. The concentration giving a half-maximal response (EC50) in test [4] amounted to 12.1 nM.
For the molecule `CC(C)C[C@@H](NC(=O)[C@@H](Cc1ccccc1)NC(=O)[C@H](N)Cc1ccccc1)C(=O)N[C@H](CCCCN)C(=O)NCc1ccc2c(c1)OCO2` [Compound 13-1], the IC50 was 1.96 nM in test [1], 2080 nM in test [2] and over 10000 nM in test [3]. The EC50 in test [4] was determined as 42.2 nM.
For the molecule `CNC(=O)C(=O)N1CCC(NC(=O)[C@@H](CCCCN)NC(=O)[C@@H](CC(C)C)NC(=O)[C@@H](Cc2ccccc2)NC(=O)[C@H](N)Cc2ccccc2)CC1` [Compound 13-32], the IC50 in test [1] was 8.49 nM; in test [2] it was 7110 nM; in test [3], over 10000 nM. For the same molecule, the concentration for a half-maximal effect (EC50) in test [4] turned out to be 26.5 nM.
As for `CC(C)C[C@@H](NC(=O)[C@@H](Cc1ccccc1)NC(=O)[C@H](N)Cc1ccccc1)C(=O)N[C@H](CCCCN)C(=O)NCCOCCO` [Compound 13-51], the half-maximal inhibitory concentration (IC50) in test [1] is 0.27 nM; in test [2] (setting [5]) it was 349 nM; in test [3] (setting [6]), over 10000 nM. The EC50 in test [4] stood at 5.15 nM.
On the same counts, the results for `CC(C)C[C@@H](NC(=O)[C@@H](Cc1ccccc1)NC(=O)[C@H](N)Cc1ccccc1)C(=O)N[C@H](CCCCN)C(=O)N1CCC(NC(=O)/C=C/C(=O)O)CC1` [Compound 13-20] are 1.44 nM, over 10000 nM, over 10000 nM and 18 nM.
For `CNC(=O)C(=O)NC1CCN(C(=O)[C@@H](CCCCN)NC(=O)[C@@H](CC(C)C)NC(=O)[C@@H](Cc2ccccc2)NC(=O)[C@H](N)Cc2ccccc2)CC1` [Compound 13-28] the same measures were 0.26 nM, over 10000 nM, over 10000 nM and 20.8 nM.
With `CC(C)C[C@@H](NC(=O)[C@@H](Cc1ccccc1)NC(=O)[C@H](N)Cc1ccccc1)C(=O)N[C@H](CCCCN)C(=O)N1CCC(O)(CO)CC1` [Compound 13-65], in test [4], the half-maximal effective concentration (EC50) was found to be 1.68 nM.
On the same count and under the same terms, with `CC(C)C[C@@H](NC(=O)[C@@H](Cc1ccccc1)NC(=O)[C@H]1Cc2ccccc2CN1)C(=O)N[C@H](CCCCN)C(=O)N1CCC(N)(C(=O)O)C1` (stereo partly drawn) [Compound 169] (H-[dTic][dF][dL][dK]-{Pyrrolidino(3-NH2-3-COOH)}) the figure was 167 nM; with `CC(C)C[C@@H](NC(=O)[C@@H](Cc1ccccc1)NC(=O)[C@H](N)Cc1ccccc1)C(=O)N[C@H](CCCCN)C(=O)NCCC[C@H](N)C(=O)O` [Compound 13-44], 4.75 nM.
With `NCCCC[C@@H](NC(=O)[C@@H](CC1CC1)NC(=O)[C@@H](Cc1ccccc1)NC(=O)[C@H](N)Cc1ccccc1)C(=O)N1CCC(N)(C(=O)O)C1` (stereo partly drawn) [Compound 119] (H-[dF][dF][dAla(cPr)][dK]-{Pyrrolidino(3-NH2-3-COOH)}), the 50% inhibitory concentration (IC50) in test [1] was found to be 2.36 nM. For the same molecule, the 50% effective concentration (EC50) in test [4] turned out to be 23.1 nM.
Turning to `COC(=O)C1(N)CCN(C(=O)[C@@H](CCCCN)NC(=O)[C@@H](CC(C)C)NC(=O)[C@@H](Cc2ccccc2)NC(=O)[C@H](N)Cc2ccc(F)cc2)CC1` [Compound 184], the EC50 in test [4] was 6.26 nM.
Regarding `N=C(N)NCCC[C@@H](NC(=O)[C@@H](CC1CC1)NC(=O)[C@@H](Cc1ccccc1)NC(=O)[C@H](N)Cc1ccccc1)C(=O)N1CCC(N)(C(=O)O)C1` (stereo partly drawn) [Compound 134] (H-[dF][dF][dAla(cPr)][dR]-{Pyrrolidino(3-NH2-3-COOH)}), the IC50 in test [1] was determined as 2.35 nM. In test [4], the EC50 was 12.6 nM.
Regarding `COC(=O)C1(N)CCN(C(=O)[C@@H](CCCCN)NC(=O)C(CC(C)C)NC(=O)[C@@H](Cc2ccccc2)NC(=O)C2(N)Cc3ccccc3C2)CC1` (stereo partly drawn) [Compound 158] (H-[Aic][dF][ξL][dK]-{Piperidin1yl(4-NH2,4-CO2Me)}), the IC50 in test [1] is 0.9 nM; in test [2] (setting [5]) it was 5370 nM; in test [3] (setting [6]) it was over 10000 nM.
For `COC(=O)C1(N)CCN(C(=O)[C@@H](CCCCN)NC(=O)C(CC(C)C)NC(=O)[C@@H](Cc2ccccc2)NC(=O)C2(N)Cc3ccccc3C2)C1` (stereo partly drawn) [Compound 156] (H-[Aic][dF][ξL][dK]-{Pyrrolidinyl(3-NH2,3-CO2Me)}) the same measures were 2.3 nM, 5370 nM and over 10000 nM.
For `CCCC[C@@H](NC(=O)[C@@H](Cc1ccccc1)NC(=O)[C@H](N)Cc1ccccc1)C(=O)N[C@H](Cc1cnc(N)nc1)C(=O)N1CCC(N)(C(=O)OC)C1` (stereo partly drawn) [Compound 82] the same measures were 42.5 nM, 5170 nM and over 10000 nM.
For `COC(=O)C1(N)CCN(C(=O)[C@@H](CCCNC(=N)N)NC(=O)[C@H]2CCCN2C(=O)[C@@H](Cc2ccccc2)NC(=O)[C@H](N)Cc2ccccc2)CC1` [Compound 22] (H-[dF][dF][dP][dR]-{Piperidin1yl(4-NH2,4-CO2Me)}) the same measures were 200 nM, 5060 nM and over 10000 nM.
For `CC(C)C[C@@H](NC(=O)[C@@H](Cc1ccccc1)NC(=O)[C@H](N)Cc1ccccc1)C(=O)N[C@H](CCCCN)C(=O)NCc1cccc(C(=O)O)n1` [Compound 13-6], the EC50 in test [4] is 30.5 nM.
Consider `CC(C)C[C@@H](NC(=O)[C@@H](Cc1ccccc1)NC(=O)[C@H](N)Cc1ccccc1)C(=O)N[C@H](CCCCN)C(=O)NC1CCN(C(=O)C(=O)NC2CC2)CC1` [Compound 13-37], for which the 50% inhibitory concentration (IC50) is 11 nM in test [1], 9290 nM in test [2] (setting [5]) and over 10000 nM in test [3] (setting [6]).
